Results published in ChEMBL document CHEMBL4513141, “CO-ADD screening of NIH (USA) - Clinical Collection” (2021).
Structures can show the parent of a compound that is named as a salt.

What was measured:
Acinetobacter baumannii = experiment: microbe, parasite or virus in culture; details: ATCC 19606, 18 h, ASSAY_TEST Inhibition of Bacterial Growth, detection method Absorption (OD600), MEDIA CAMHB, plate type 384well, NBS, CORNING #3640
Description: Antibacterial activity against Acinetobacter baumannii ATCC 19606 (CO-ADD:GN_034); MIC in CAMBH media using NBS plates, by OD600

Escherichia coli = experiment: microbe, parasite or virus in culture; details: ATCC 25922, 18 h, ASSAY_TEST Inhibition of Bacterial Growth, detection method Absorption (OD600), MEDIA CAMHB, plate type 384well, NBS, CORNING #3640
Description: Antibacterial activity against Escherichia coli ATCC 25922 (CO-ADD:GN_001); MIC in CAMBH media using NBS plates, by OD(600)

Klebsiella pneumoniae = experiment: microbe, parasite or virus in culture; details: ATCC 700603, 18 h, ASSAY_TEST Inhibition of Bacterial Growth, detection method Absorption (OD600), MEDIA CAMHB, plate type 384well, NBS, CORNING #3640
Description: Antibacterial activity against Klebsiella pneumoniae MDR ATCC 70063 (CO-ADD:GN_003); MIC in CAMBH media using NBS plates, by OD(600)

HEK293 = experiment: cells; type: functional, Homo sapiens, ATCC CRL1573; details: Homo sapiens, ATCC CRL1573, HEK293; ASSAY_TEST Inhibition of Cell Viability; detection method Resazurin; Fluorescence (ex560/em590); MEDIA DMEM with 10% FBS; plate type 384well; TC; CORNING #3712; time 18 hr
Staphylococcus aureus = experiment: microbe, parasite or virus in culture; details: ATCC 43300, 18 h, ASSAY_TEST Inhibition of Bacterial Growth, detection method Absorption (OD600), MEDIA CAMHB, plate type 384well, NBS, CORNING #3640
Description: Antibacterial activity against Staphylococcus aureus MRSA ATCC 43300 (CO-ADD:GP_020); MIC in CAMBH media, using NBS plates, by OD(600)

Pseudomonas aeruginosa = experiment: microbe, parasite or virus in culture; details: ATCC 27853, 18 h, ASSAY_TEST Inhibition of Bacterial Growth, detection method Absorption (OD600), MEDIA CAMHB, plate type 384well, NBS, CORNING #3640
Description: Antibacterial activity against Pseudomonas aeruginosa ATCC 27853 (CO-ADD:GN_042); MIC in CAMBH media using NBS plates, by OD(600)

Candida albicans = experiment: microbe, parasite or virus in culture; details: ATCC 90028, ASSAY_TEST Inhibition of Fungal Growth, detection method Absorption (OD530), plate type 384well, NBS, CORNING #3640
Description: Antifungal activity against Candida albicans ATCC 90028 (CO-ADD:FG_001); MIC in YNB media using NBS plates, by OD630

Description for Cryptococcus neoformans: Antifungal activity against Cryptococcus neoformans H99 ATCC 208821 (CO-ADD:FG_002); MIC in YNB media using NBS plates, by Resazurin OD(600-570)

CC1(C)SC2C(NC(=O)C(N)c3ccccc3)C(=O)N2C1C(=O)O (stereo unspecified)
> 10 µM: MIC (Acinetobacter baumannii) | MIC (Escherichia coli) | MIC (Klebsiella pneumoniae) | CC50 (HEK293) | MIC (Staphylococcus aureus) | MIC (Cryptococcus neoformans) | MIC (Pseudomonas aeruginosa) | MIC (Candida albicans)

COc1cc2nc(N3CCN(C(=O)c4ccco4)CC3)nc(N)c2cc1OC
> 10 µM: MIC (Acinetobacter baumannii) | MIC (Escherichia coli) | MIC (Klebsiella pneumoniae) | CC50 (HEK293) | MIC (Staphylococcus aureus) | MIC (Cryptococcus neoformans) | MIC (Pseudomonas aeruginosa) | MIC (Candida albicans)

CCCCCCCCCOc1ccc2[nH]cc(CCN)c2c1
> 10 µM: MIC (Acinetobacter baumannii) | MIC (Escherichia coli) | MIC (Klebsiella pneumoniae) | MIC (Staphylococcus aureus) | MIC (Cryptococcus neoformans) | MIC (Pseudomonas aeruginosa) | MIC (Candida albicans)
4.05 µM: CC50 (HEK293)

CN1CCN(c2c(F)cc3c(=O)c(C(=O)O)cn4c3c2SCC4)CC1
> 10 µM: MIC (Acinetobacter baumannii) | MIC (Klebsiella pneumoniae) | CC50 (HEK293) | MIC (Cryptococcus neoformans) | MIC (Candida albicans)
1.25 µM: MIC (Escherichia coli)
2.5 µM: MIC (Staphylococcus aureus)
10 µM: MIC (Pseudomonas aeruginosa)

CC1(C)SC2C(NC(=O)Cc3ccccc3)C(=O)N2C1C(=O)O (stereo unspecified)
> 10 µM: MIC (Acinetobacter baumannii) | MIC (Escherichia coli) | MIC (Klebsiella pneumoniae) | CC50 (HEK293) | MIC (Staphylococcus aureus) | MIC (Cryptococcus neoformans) | MIC (Pseudomonas aeruginosa) | MIC (Candida albicans)

CO[C@H]1C=CO[C@@]2(C)Oc3c(C)c(O)c4c(O)c(c5c(nc6cc(C)ccn65)c4c3C2=O)NC(=O)C(C)=CC=C[C@H](C)[C@H](O)[C@@H](C)[C@@H](O)[C@@H](C)[C@H](OC(C)=O)[C@@H]1C
10 µM: MIC (Acinetobacter baumannii) | MIC (Escherichia coli)
> 10 µM: MIC (Klebsiella pneumoniae) | CC50 (HEK293) | MIC (Cryptococcus neoformans) | MIC (Candida albicans)
2.5 µM: MIC (Pseudomonas aeruginosa)
≤ 0.0781 µM: MIC (Staphylococcus aureus)

C=CC[C@@H]1C=C(C)C[C@H](C)C[C@H](OC)[C@H]2O[C@@](O)(C(=O)C(=O)N3CCCC[C@H]3C(=O)O[C@H](/C(C)=C/[C@@H]3CC[C@@H](O)[C@H](OC)C3)[C@H](C)[C@@H](O)CC1=O)[C@H](C)C[C@@H]2OC
≤ 0.0781 µM: MIC (Cryptococcus neoformans)
> 10 µM: MIC (Acinetobacter baumannii) | MIC (Escherichia coli) | MIC (Klebsiella pneumoniae) | CC50 (HEK293) | MIC (Staphylococcus aureus) | MIC (Pseudomonas aeruginosa) | MIC (Candida albicans)

CON=C(C(=O)N[C@@H]1C(=O)N2C(C(=O)O)=C(COC(N)=O)CS[C@H]12)c1ccco1
10 µM: MIC (Escherichia coli)
> 10 µM: MIC (Acinetobacter baumannii) | MIC (Klebsiella pneumoniae) | CC50 (HEK293) | MIC (Cryptococcus neoformans) | MIC (Pseudomonas aeruginosa) | MIC (Candida albicans)
5 µM: MIC (Staphylococcus aureus)

CC1(C)SC2C(NC(=O)COc3ccccc3)C(=O)N2C1C(=O)O (stereo unspecified)
> 10 µM: MIC (Acinetobacter baumannii) | MIC (Escherichia coli) | MIC (Klebsiella pneumoniae) | CC50 (HEK293) | MIC (Staphylococcus aureus) | MIC (Cryptococcus neoformans) | MIC (Pseudomonas aeruginosa) | MIC (Candida albicans)

NC(=O)OCC(COC(N)=O)c1ccccc1
> 10 µM: MIC (Acinetobacter baumannii) | MIC (Escherichia coli) | MIC (Klebsiella pneumoniae) | CC50 (HEK293) | MIC (Staphylococcus aureus) | MIC (Cryptococcus neoformans) | MIC (Pseudomonas aeruginosa) | MIC (Candida albicans)

Cc1onc(-c2c(Cl)cccc2Cl)c1C(=O)N[C@@H]1C(=O)N2[C@@H]1SC(C)(C)[C@@H]2C(=O)O
> 10 µM: MIC (Acinetobacter baumannii) | MIC (Escherichia coli) | MIC (Klebsiella pneumoniae) | CC50 (HEK293) | MIC (Cryptococcus neoformans) | MIC (Pseudomonas aeruginosa) | MIC (Candida albicans)
0.625 µM: MIC (Staphylococcus aureus)

Cc1onc(-c2ccccc2)c1C(=O)NC1C(=O)N2C1SC(C)(C)C2C(=O)O (stereo unspecified)
> 10 µM: MIC (Acinetobacter baumannii) | MIC (Escherichia coli) | MIC (Klebsiella pneumoniae) | CC50 (HEK293) | MIC (Staphylococcus aureus) | MIC (Cryptococcus neoformans) | MIC (Pseudomonas aeruginosa) | MIC (Candida albicans)

NC(=O)c1ncn(C2OC(CO)C(O)C2O)n1 (stereo unspecified)
> 10 µM: MIC (Acinetobacter baumannii) | MIC (Escherichia coli) | MIC (Klebsiella pneumoniae) | CC50 (HEK293) | MIC (Staphylococcus aureus) | MIC (Cryptococcus neoformans) | MIC (Pseudomonas aeruginosa) | MIC (Candida albicans)

O=C(NC(CO)C(O)c1ccc([N+](=O)[O-])cc1)C(Cl)Cl (stereo unspecified)
> 10 µM: MIC (Acinetobacter baumannii) | MIC (Klebsiella pneumoniae) | CC50 (HEK293) | MIC (Staphylococcus aureus) | MIC (Cryptococcus neoformans) | MIC (Pseudomonas aeruginosa) | MIC (Candida albicans)
10 µM: MIC (Escherichia coli)

Cc1nnc(SCC2=C(C(=O)O)N3C(=O)C(NC(=O)Cn4cnnn4)C3SC2)s1 (stereo unspecified)
> 10 µM: MIC (Acinetobacter baumannii) | MIC (Escherichia coli) | MIC (Klebsiella pneumoniae) | CC50 (HEK293) | MIC (Staphylococcus aureus) | MIC (Cryptococcus neoformans) | MIC (Pseudomonas aeruginosa) | MIC (Candida albicans)

CO[C@H]1/C=C/O[C@@]2(C)Oc3c(C)c(O)c4c(O)c(c(C=NN5CCN(C6CCCC6)CC5)c(O)c4c3C2=O)NC(=O)/C(C)=C\C=C\[C@H](C)[C@H](O)[C@@H](C)[C@@H](O)[C@@H](C)[C@H](OC(C)=O)[C@@H]1C
≤ 0.0781 µM: MIC (Staphylococcus aureus)
10 µM: MIC (Escherichia coli) | MIC (Pseudomonas aeruginosa)
> 10 µM: MIC (Acinetobacter baumannii) | MIC (Klebsiella pneumoniae) | CC50 (HEK293) | MIC (Cryptococcus neoformans) | MIC (Candida albicans)

CCOC(=O)CCC(=O)OC1C(OC2C(C)C(OC3CC(C)(OC)C(O)C(C)O3)C(C)C(=O)OC(CC)C(C)(O)C(O)C(C)C(=O)C(C)CC2(C)O)OC(C)CC1N(C)C (stereo unspecified)
> 10 µM: MIC (Acinetobacter baumannii) | MIC (Escherichia coli) | MIC (Klebsiella pneumoniae) | CC50 (HEK293) | MIC (Staphylococcus aureus) | MIC (Cryptococcus neoformans) | MIC (Pseudomonas aeruginosa) | MIC (Candida albicans)

CO[C@H]1/C=C/O[C@@]2(C)Oc3c(C)c(O)c4c(O)c(c(C=NN5CCN(C)CC5)c(O)c4c3C2=O)NC(=O)/C(C)=C\C=C\[C@H](C)[C@H](O)[C@@H](C)[C@@H](O)[C@@H](C)[C@H](OC(C)=O)[C@@H]1C
> 10 µM: MIC (Acinetobacter baumannii) | MIC (Klebsiella pneumoniae) | CC50 (HEK293) | MIC (Cryptococcus neoformans) | MIC (Candida albicans)
10 µM: MIC (Escherichia coli)
≤ 0.0781 µM: MIC (Staphylococcus aureus)
2.5 µM: MIC (Pseudomonas aeruginosa)

C=CC1=C(C(=O)O)N2C(=O)[C@@H](NC(=O)/C(=N/OCC(=O)O)c3csc(N)n3)[C@H]2SC1
2.5 µM: MIC (Escherichia coli)
> 10 µM: MIC (Acinetobacter baumannii) | MIC (Klebsiella pneumoniae) | CC50 (HEK293) | MIC (Staphylococcus aureus) | MIC (Cryptococcus neoformans) | MIC (Pseudomonas aeruginosa) | MIC (Candida albicans)

CN(C)C1C(=O)C(C(N)=O)=C(O)C2(O)C(=O)C3=C(O)c4c(O)ccc(Cl)c4C(O)C3CC12 (stereo unspecified)
2.5 µM: MIC (Pseudomonas aeruginosa)
1.25 µM: MIC (Staphylococcus aureus)
> 10 µM: MIC (Acinetobacter baumannii) | MIC (Klebsiella pneumoniae) | CC50 (HEK293) | MIC (Cryptococcus neoformans) | MIC (Candida albicans)
5 µM: MIC (Escherichia coli)

O=c1[nH]c(=O)n(C2CC(O)C(CO)O2)cc1F (stereo unspecified)
> 10 µM: MIC (Acinetobacter baumannii) | MIC (Cryptococcus neoformans) | MIC (Pseudomonas aeruginosa) | MIC (Candida albicans)
2.37 µM: CC50 (HEK293)
10 µM: MIC (Escherichia coli)
5 µM: MIC (Klebsiella pneumoniae)
≤ 0.0781 µM: MIC (Staphylococcus aureus)

C=CC1=C(C(=O)O)N2C(=O)[C@@H](NC(=O)/C(=N\O)c3csc(N)n3)[C@H]2SC1
5 µM: MIC (Staphylococcus aureus)
> 10 µM: MIC (Acinetobacter baumannii) | CC50 (HEK293) | MIC (Cryptococcus neoformans) | MIC (Pseudomonas aeruginosa) | MIC (Candida albicans)
2.5 µM: MIC (Escherichia coli)
10 µM: MIC (Klebsiella pneumoniae)

CCN(CC)C(=S)SSC(=S)N(CC)CC
2.5 µM: MIC (Candida albicans)
5.04 µM: CC50 (HEK293)
5 µM: MIC (Cryptococcus neoformans)
> 10 µM: MIC (Acinetobacter baumannii) | MIC (Escherichia coli) | MIC (Klebsiella pneumoniae) | MIC (Staphylococcus aureus) | MIC (Pseudomonas aeruginosa)

CCCCc1oc2ccccc2c1C(=O)c1cc(I)c(OCCN(CC)CC)c(I)c1 [AMIODARONE HYDROCHLORIDE]
> 10 µM: MIC (Acinetobacter baumannii) | MIC (Klebsiella pneumoniae) | CC50 (HEK293) | MIC (Staphylococcus aureus) | MIC (Pseudomonas aeruginosa) | MIC (Candida albicans)
10 µM: MIC (Cryptococcus neoformans)
